# Publication PMC9395488, “First-in-human study of IM156, a novel potent biguanide oxidative phosphorylation (OXPHOS) inhibitor, in patients with advanced solid tumors” (Investigational New Drugs, 2022)
# Entries after “also recorded” stand apart in the source; their conditions may differ.
# What was measured:
# [1] = system: beagle dogs; details: ref ImmunoMet, 2018, cited from earlier work
# [2] = system: purified complex I membrane from bovine heart; design: method as in ImmunoMet, 2018; details: ref ImmunoMet, 2018, read-out: mitochondrial OXPHOS inhibition IC50; cited from earlier work
# [3] = system: advanced solid tumors; test: Preliminary efficacy (RECIST 1.1 / RANO response, PFS); assay type: in vivo, human
# Excerpt: A preliminary evaluation of efficacy was based on serial CT or magnetic resonance imaging (MRI). Response criteria were as defined by RECIST 1.1 or RANO. The following endpoints were to be assessed: overall response rate (ORR: complete response [CR] plus partial response [PR]), disease control rate (DCR: CR + PR + stable disease [SD]), DoR, and PFS.
# The safety population was defined as all patients who received at least one dose of IM156. The PK population was not defined in the protocol but included all patients with sufficient PK data to perform adequate PK modeling. The efficacy population included all patients who underwent at least one tumor imaging assessment while receiving IM156. Safety was assessed using descriptive statistics (e.g., DLTs, AEs, laboratory tests, physical examination, 12-lead ECG). The incidence and number of events were reported for the DLTs observed in Cycle 1 per dose group. […] Two-sided 95% Confidence Intervals (CIs) were also provided. Adverse events and TRAEs were standardized with the System Organ Class and the Preferred Term using the Medical Dictionary for Regulatory Activities v23.0. In addition, TEAEs, serious adverse events (SAEs), TEAE severity, and TEAEs leading to withdrawal were presented by dose group. Efficacy data were to be presented by Waterfall and Swim Lane plots. Time to event endpoints (e.g., DoR, PFS) were determined using Kaplan–Meier estimations with the median value for each endpoint summarized.
# [4] = Urine pharmacokinetics of IM156 in patients; assay type: in vivo, human; details: for % Dose Recovered / CLr / Total Amount Excreted (Ae): urine
# [5] = Day 27, cohort 1, 100 mg QOD, n<3
# [6] = Day 27, cohort 7, 1200 mg QD, n<3
structure (smiles),measurement,setting,value
NC(=Nc1ccc(OC(F)(F)F)cc1)N=C(N)N1CCCC1 [IM156],tolerability,"[1]; beagle dogs, 20, 40, or 80 mg/kg/dose QOD oral gavage, 27 days",tolerated and did not result in morbidity/mortality
same,highest non-severely toxic dose (HNSTD),"[1]; beagle dogs, oral QOD over 27 days (14 doses), highest dose tested",≥ 80 mg/kg
same,IC50,[2],2000 nM
same,duration of prolonged SD / time on IM156,[3]; 1 patient with gastric adenocarcinoma,169 days
same,duration of prolonged SD / time on IM156,[3]; 1 patient with gastric neuroendocrine carcinoma,444 days
same,objective responses (CRs or PRs),[3]; 16 of 22 patients with response data,No objective responses; also recorded: No clinical responses
same,median PFS,[3]; Kaplan–Meier,54 days
same,"median PFS, 95% CI",[3]; Kaplan–Meier,47 to 71 days
same,disease control rate (DCR),[3]; N = 22,32%
same,patients with confirmed SD,[3]; N = 22,2 patients
same,"patients with confirmed SD, percent",[3]; N = 22,9%
same,patients with stable disease (SD) as best response,[3]; N = 22,7 patients
same,"patients with stable disease (SD) as best response, percent",[3]; N = 22,32%
same,IM156 excreted in the urine,"[4]; Day 1, 200—1200 mg QOD, approximately",8–10%
same,% Dose Recovered,"[4]; Day 1, cohort 1, 100 mg QOD",1.79 ± 0.620%
same,CLr,"[4]; Day 1, cohort 1, 100 mg QOD",6.16 ± 5.25 L/h
same,Total Amount Excreted (Ae),"[4]; Day 1, cohort 1, 100 mg QOD",1790 ± 620 µg
same,% Dose Recovered,"[4]; Day 1, cohort 2, 200 mg QOD",10.0 ± 1.57%
same,CLr,"[4]; Day 1, cohort 2, 200 mg QOD",6.69 ± 0.709 L/h
same,Total Amount Excreted (Ae),"[4]; Day 1, cohort 2, 200 mg QOD",20000 ± 3150 µg
same,% Dose Recovered,"[4]; Day 1, cohort 3, 400 mg QOD",7.90 ± 2.90%
same,CLr,"[4]; Day 1, cohort 3, 400 mg QOD",9.41 ± 6.80 L/h
same,Total Amount Excreted (Ae),"[4]; Day 1, cohort 3, 400 mg QOD",31600 ± 11600 µg
same,% Dose Recovered,"[4]; Day 1, cohort 4, 800 mg QOD",7.86 ± 4.25%
same,CLr,"[4]; Day 1, cohort 4, 800 mg QOD",10.4 ± 6.93 L/h
same,Total Amount Excreted (Ae),"[4]; Day 1, cohort 4, 800 mg QOD",62900 ± 34000 µg
same,% Dose Recovered,"[4]; Day 1, cohort 5, 1200 mg QOD",9.11 ± 12.9%
same,CLr,"[4]; Day 1, cohort 5, 1200 mg QOD",7.89 ± 9.01 L/h
same,Total Amount Excreted (Ae),"[4]; Day 1, cohort 5, 1200 mg QOD",109000 ± 155000 µg
same,% Dose Recovered,"[4]; Day 1, cohort 6, 800 mg QD",7.96 ± 5.94%
same,CLr,"[4]; Day 1, cohort 6, 800 mg QD",7.92 ± 2.62 L/h
same,Total Amount Excreted (Ae),"[4]; Day 1, cohort 6, 800 mg QD",63700 ± 47500 µg
same,% Dose Recovered,"[4]; Day 1, cohort 7, 1200 mg QD",8.79 ± 2.05%
same,CLr,"[4]; Day 1, cohort 7, 1200 mg QD",7.60 ± 4.02 L/h
same,Total Amount Excreted (Ae),"[4]; Day 1, cohort 7, 1200 mg QD",105000 ± 24600 µg
same,% Dose Recovered,[4]; [5],4.32%
same,CLr,[4]; [5],4.46 L/h
same,Total Amount Excreted (Ae),[4]; [5],4320 µg
same,% Dose Recovered,"[4]; Day 27, cohort 2, 200 mg QOD",13.9 ± 2.34%
same,CLr,"[4]; Day 27, cohort 2, 200 mg QOD",6.83 ± 1.58 L/h
same,Total Amount Excreted (Ae),"[4]; Day 27, cohort 2, 200 mg QOD",27700 ± 4680 µg
same,% Dose Recovered,"[4]; Day 27, cohort 3, 400 mg QOD",16.2 ± 11.4%
same,CLr,"[4]; Day 27, cohort 3, 400 mg QOD",8.68 ± 1.52 L/h
same,Total Amount Excreted (Ae),"[4]; Day 27, cohort 3, 400 mg QOD",64700 ± 45600 µg
same,% Dose Recovered,"[4]; Day 27, cohort 4, 800 mg QOD",16.2 ± 9.80%
same,CLr,"[4]; Day 27, cohort 4, 800 mg QOD",11.2 ± 6.94 L/h
same,Total Amount Excreted (Ae),"[4]; Day 27, cohort 4, 800 mg QOD",129000 ± 78400 µg
same,% Dose Recovered,"[4]; Day 27, cohort 5, 1200 mg QOD",18.7 ± 10.6%
same,CLr,"[4]; Day 27, cohort 5, 1200 mg QOD",10.9 ± 7.79 L/h
same,Total Amount Excreted (Ae),"[4]; Day 27, cohort 5, 1200 mg QOD",225000 ± 128000 µg
same,% Dose Recovered,"[4]; Day 27, cohort 6, 800 mg QD",34.8 ± 6.56%
same,CLr,"[4]; Day 27, cohort 6, 800 mg QD",8.72 ± 3.01 L/h
same,Total Amount Excreted (Ae),"[4]; Day 27, cohort 6, 800 mg QD",279000 ± 52500 µg
same,% Dose Recovered,[4]; [6],21.0%
same,CLr,[4]; [6],7.16 L/h
same,Total Amount Excreted (Ae),[4]; [6],252000 µg
same,% Dose Recovered,"[4]; Fed 1, cohort 7, 1200 mg",5.42 ± 3.51%
same,CLr,"[4]; Fed 1, cohort 7, 1200 mg",5.16 ± 3.51 L/h
same,Total Amount Excreted (Ae),"[4]; Fed 1, cohort 7, 1200 mg",65100 ± 42100 µg
